Measured values: patent publication US20150344466A1 (SUMITOMO CHEMICAL COMPANY, LIMITED, priority 2013, published 2015)

Key:
Type in all cases: in vivo
Blattella germanica [1] = assay: Knockdown spray test on Blattella germanica, 2.0% w/v oil formulation (Test Example 1); conditions: topical, 0.25 h, active ingredient 2.0% w/v, 1.5 ml sprayed, within 15 minutes, read-out: knockdown rate of the test insects within 15 minutes
How it was run: (§1)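 Ten German cockroaches (5 males, 5 females) in a mesh-bottomed, butter-walled container were sprayed with 1.5 ml test solution from 60 cm at 0.42 kg/cm^2 inside a chamber.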

Musca domestica [2] = assay: Knockdown spray test on adult Musca domestica (Test Example 3); conditions: topical, 0.25 h, active ingredient 2.0% w/v, 0.5 ml sprayed, within 15 minutes, read-out: knockdown rate of the test insects within 15 minutes
Protocol: Ten adult Musca domestica (five males and five females) were released in a polyethylene cup (bottom diameter: 10.6 cm), and the cup was covered with a 16-mesh nylon gauze. The polyethylene cup was placed on the bottom of a test chamber (bottom: 46 cm×46 cm, height: 70 cm). From a height of 30 cm above the upper surface of the polyethylene cup, 0.5 ml of the test drug solution was sprayed using a spray gun (a spraying pressure of 0.9 kg/cm^2). Immediately after spraying, the cup was taken out from the test chamber, and after 2 minutes, 5 minutes and 15 minutes, the number of knocked-down insects was counted to obtain a knockdown rate. The knockdown rate was calculated by the following equation.
Knockdown Rate (%)=(Number of Knocked-down Insects/Number of Tested Insects)×100

Culex pipiens pallens [3] = assay: Knockdown spray test on adult Culex pipiens pallens (Test Example 4); conditions: topical, 0.25 h, active ingredient 0.1% w/v, 0.5 ml sprayed, within 15 minutes, read-out: knockdown rate of the test insects within 15 minutes
How it was run: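 Ten adult mosquitoes in a gauze-covered cup inside a 46×46×70 cm chamber were sprayed with 0.5 ml of test solution from 30 cm at 0.4 kg/cm^2. The cup was removed at once, and knocked-down insects were counted at 2, 5 and 15 min; knockdown rate (%) = knocked-down/tested ×100.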

Culex pipiens pallens [4] = assay: Larvicidal test on Culex pipiens pallens, eight days (Test Example 7); conditions: 192 h; last-instar larvae of Culex pipiens pallens; 3.5 ppm in water; eight days later; read-out: death rate
Protocol: 20 last-instar larvae of Culex pipiens pallens were released into a liquid to which 0.7 ml of the above test drug solution was added to 100 ml of ion-exchanged water (a concentration of the active ingredient of 3.5 ppm). Eight days later, the life and death of the Culex pipiens pallens was examined, and the death rate was calculated. The death rate was calculated by the following equation.
Death rate (%)=(Number of dead insects/Number of tested insects)×100

Blattella germanica [5] = assay: Knockdown spray test on Blattella germanica, 0.1% w/v oil formulation (Test Example 2); conditions: topical, 0.25 h, active ingredient 0.1% w/v, 1.5 ml sprayed, within 15 minutes, read-out: knockdown rate of the test insects within 15 minutes
How it was run: as §1

Plutella xylostella = assay: Foliar spray test on Plutella xylostella on cabbage (Test Example 10); conditions: 120 h, third instar larvae of Plutella xylostella on cabbage, 500 ppm spray 20 ml/cup, after five days, read-out: controlling value
Protocol: On the other hand, cabbage was planted in a polyethylene cup, and grown until the third-fourth true leaf was spread. The test spray solution was sprayed to the cabbage at a ratio of 20 ml/cup. After the drug solution sprayed on the cabbage was dried, 10 third instar larvae of Plutella xylostella were allowed to parasitize the cabbage. After five days, the number of Plutella xylostella was investigated, and the controlling value was calculated according to the following standard. Controlling value (%)={1−(Cb×Tai)/(Cai×Tb)}×100 In the equation, the symbols represent as follows. Cb: the number of insects in a non-treated section before treatment Cai: the number of insects in a non-treated section on observation Tb: the number of insects in a treated section before treatment Tai: the number of insects in a treated section on observation

Spodoptera litura = assay: Foliar spray test on Spodoptera litura on cabbage (Test Example 11); conditions: 96 h, fourth instar larvae of Spodoptera litura on cabbage, 500 ppm spray 20 ml/cup, after 4 days, read-out: controlling value
Protocol: On the other hand, cabbage was planted in a polyethylene cup, and grown until the third-fourth true leaf was spread. The test spray solution was sprayed to the cabbage at a ratio of 20 ml/cup. After the drug solution sprayed orn the cabbage was dried, 10 fourth instar larvae of Spodoptera litura were allowed to parasitize the cabbage. After 4 days, the number of surviving Spodoptera litura on the cabbage leaves was examined, and the controlling value was calculated according to the following equation. Controlling value (%)={1−(Cb×Tai)/([…])}×100 In the equation, the symbols represent as follows. Cb: the number of insects in a non-treated section before treatment Cai: the number of insects in a non-treated section on observation Tb: the number of insects in a treated section before treatment Tai: the number of insects in a treated section on observation

Musca domestica [6] = assay: Filter paper/sucrose bait death rate test on Musca domestica (Test Example 5); conditions: female imagoes of Musca domestica, 0.7 ml on filter paper, after 24 hours
How it was run: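 Filter paper in a 5.5 cm cup dosed with 0.7 ml test drug solution, with 30 mg sucrose as bait. Ten female adult houseflies released and cup sealed. Dead insects counted after 24 h; death rate (%) = dead/tested × 100.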

| SMILES | pest or weed control at 2 % strength (Blattella germanica [1]) [%] | pest or weed control at 2 % strength (Musca domestica [2]) [%] | pest or weed control at 0.1 % strength (Culex pipiens pallens [3]) [%] | pest or weed control at 3.5 ppm (Culex pipiens pallens [4]) [%] | pest or weed control at 0.1 % strength (Blattella germanica [5]) [%] | pest or weed control at 500 ppm (Plutella xylostella) [%] | pest or weed control at 500 ppm (Spodoptera litura) [%] | pest or weed control at 500 ppm (Musca domestica [6]) [%] |
| --- | --- | --- | --- | --- | --- | --- | --- | --- |
| O=C(NCC1CCOC1)c1cc(CCCCOc2ccccc2)on1 (centres unmarked) [(146), N-(tetrahydrofuran-3-ylmethyl)-5-(4-phenoxybutyl)isoxazole-3-carboxamide] | ≥ 80 | ≥ 80 | ≥ 80 | ≥ 90 | – | – | – | – |
| O=C(NCC1CCOCC1)c1cc(COCc2ccc3ccccc3c2)on1 [(21), N-(tetrahydropyran-4-ylmethyl)-5-(2-naphthylmethoxymethyl)isoxazole-3-carboxamide] | ≥ 80 | ≥ 80 | ≥ 80 | ≥ 90 | – | – | – | – |
| O=C(NCC1CCOC1)c1cc(Cc2cccc(F)c2)on1 (centres unmarked) [(318), N-(tetrahydrofuran-3-ylmethyl)-5-(3-fluorobenzyl)isoxazole-3-carboxamide] | – | – | ≥ 80 | – | ≥ 80 | ≥ 90 | ≥ 80 | – |
| CC1(CNC(=O)c2cc(CCCc3ccc4ccccc4c3)on2)COC1 [(332), N-(3-methyloxetan-3-ylmethyl)-5-[3-(2-naphthyl)propyl]isoxazole-3-carboxamide] | ≥ 80 | ≥ 80 | ≥ 80 | ≥ 90 | ≥ 80 | – | – | – |
| O=C(NCC1CCOC1)c1cc(COCc2cc3ccccc3s2)on1 (centres unmarked) [(112), N-(tetrahydrofuran-3-ylmethyl)-5-(benzothiophen-2-ylmethoxymethyl)isoxazole-3-carboxamide] | – | – | ≥ 80 | – | ≥ 80 | – | ≥ 80 | – |
| O=C(NCC1CCOC1)c1cc(Cc2cccc(Cl)c2)on1 (centres unmarked) [(321), N-(tetrahydrofuran-3-ylmethyl)-5-(3-chlorobenzyl)isoxazole-3-carboxamide] | – | – | ≥ 80 | – | ≥ 80 | – | ≥ 80 | ≥ 90 |
| O=C(NCC1CCOC1)c1cc(COCc2ccc(Cl)cc2)on1 (centres unmarked) [(70), N-(tetrahydrofuran-3-ylmethyl)-5-(4-chlorobenzyloxymethyl)isoxazole-3-carboxamide] | – | – | ≥ 80 | ≥ 90 | ≥ 80 | ≥ 90 | – | – |
| O=C(NCC1CCOC1)c1cc(COCc2ccc(Br)c(F)c2)on1 (centres unmarked) [(272), N-(tetrahydrofuran-3-ylmethyl)-5-(4-bromo-3-fluorobenzyloxymethyl)isoxazole-3-carboxamide] | – | – | ≥ 80 | – | – | ≥ 90 | ≥ 80 | – |
| O=C(NCC1CCOC1)c1cc(COCc2ccc(Br)cc2)on1 (centres unmarked) [(91), N-(tetrahydrofuran-3-ylmethyl)-5-(4-bromobenzyloxymethyl)isoxazole-3-carboxamide] | – | – | ≥ 80 | ≥ 90 | ≥ 80 | ≥ 90 | – | – |
| O=C(NCC1CCOC1)c1cc(COc2cccc(Br)c2)on1 (centres unmarked) [(196), N-(tetrahydrofuran-3-ylmethyl)-5-(3-bromophenoxymethyl)isoxazole-3-carboxamide] | – | – | ≥ 80 | – | ≥ 80 | – | ≥ 80 | – |
| O=C(NCC1CCOCC1)c1cc(COc2cccc(Br)c2)on1 [(197), N-(tetrahydropyran-4-ylmethyl)-5-(3-bromophenoxymethyl)isoxazole-3-carboxamide] | – | – | ≥ 80 | – | – | – | ≥ 80 | – |
| O=C(NCC1CCOC1)c1cc(Cc2ccc(Cl)c(Cl)c2)on1 (centres unmarked) [(325), N-(tetrahydrofuran-3-ylmethyl)-5-(3,4-dichlorobenzyl)isoxazole-3-carboxamide] | – | – | ≥ 80 | – | ≥ 80 | – | ≥ 80 | ≥ 90 |
